This note sets out measurements from paper PMC12955902 (Advanced Science, 2025).

Assay [1] has as its target T1, SaHU (Staphylococcus aureus, UniProt Q99U17).
T1 sequence (Q99U17 1-90): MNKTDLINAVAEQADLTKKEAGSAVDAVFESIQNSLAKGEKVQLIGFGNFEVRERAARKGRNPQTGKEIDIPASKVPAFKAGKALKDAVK
The assay can be described thus: microscale thermophoresis. The format is binding. Background: MST reads how a fluorescent partner responds to local heating, with and without ligand.

For assay [2], the target named is T2, HU protein of M. tuberculosis (Mycobacterium tuberculosis, UniProt P9WMK7).
T2 construct: gene hupB

Assay [3] concerns the target T3, HU protein of S. pyogenes (Streptococcus pyogenes, UniProt Q5XB35).
T3 construct: gene hup
The assay can be described thus: WaterLOGSY NMR. The conditions noted are these: 10 µM HU, 400 µM compound; 50 mM NaCl, 20 mM Tris, pH 7.4, 5% DMSO, 10% D2O, 298 K. It is filed as binding.

T2 sequence (P9WMK7 2-216): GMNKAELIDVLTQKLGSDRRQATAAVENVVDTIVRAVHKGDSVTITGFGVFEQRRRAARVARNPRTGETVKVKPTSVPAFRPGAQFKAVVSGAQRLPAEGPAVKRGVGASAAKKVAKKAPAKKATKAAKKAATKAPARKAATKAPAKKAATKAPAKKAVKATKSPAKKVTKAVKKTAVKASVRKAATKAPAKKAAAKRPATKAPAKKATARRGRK
T3 sequence (Q5XB35 whole entry): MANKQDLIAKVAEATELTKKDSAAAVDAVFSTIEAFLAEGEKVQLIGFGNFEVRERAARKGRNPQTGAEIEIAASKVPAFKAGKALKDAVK

Turning to `O=C(/C=C/c1ccccc1)NO` [CHA], binding in assay [1] was characterised by a dissociation constant (Kd) of 5.77 ± 0.93 µM.
As to `O=C(/C=C/c1cccc(S(=O)(=O)Nc2ccccc2)c1)NO` [Belinostat], the “WaterLOGSY NMR” value was “including A. baumannii, S. pneumoniae, B. subtilis, M. tuberculosis and S. pyogenes” in assay [2]; “including A. baumannii, S. pneumoniae, B. subtilis, M. tuberculosis and S. pyogenes” in assay [3]. In assay [1], this molecule yielded a Kd of 4.24 ± 0.24 µM.

One may read the Kd as a measure of binding affinity in units of concentration. A higher Kd goes with weaker binding.
